Assay results: patent US8785457B2 (Cellzome Limited, priority 2009, dated 2014)

Tests used:
[1] = target: T1, PI3 Kgamma (PI3 Kg) (Homo sapiens, UniProt P48736); test: kinobeads assay, PI3Kgamma; assay type: binding; details: kinobeads assay, Table 6; read-out: Inhibition values (IC50) PI3Kg
T1 construct: endogenous in cells; host or cells: cell lysate
In short: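 In this bead competition format, compound and immobilized phenylmorpholin-chromen ligand compete for kinases in cell lysate. Eluted captured kinases were measured by multiplexed immunodetection, and IC50 was calculated.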

[2] = target: T2, mTOR (Homo sapiens, UniProt P42345); test: mTOR kinobeads assay (competitive binding in Jurkat cell lysate, immunodetection); details: kinobeads assay, Table 6; read-out: Inhibition values (IC50) mTOR
T2 construct: endogenous in cells; host or cells: Jurkat, clone E6-1 (ATCC TIB-152) cell lysate
In short: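 IC50 derived from dose-response curves of mTOR captured on immobilized phenylmorpholin-chromen beads, detected by antibody dot blot with infrared fluorescence.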

T1 sequence (P48736 whole entry): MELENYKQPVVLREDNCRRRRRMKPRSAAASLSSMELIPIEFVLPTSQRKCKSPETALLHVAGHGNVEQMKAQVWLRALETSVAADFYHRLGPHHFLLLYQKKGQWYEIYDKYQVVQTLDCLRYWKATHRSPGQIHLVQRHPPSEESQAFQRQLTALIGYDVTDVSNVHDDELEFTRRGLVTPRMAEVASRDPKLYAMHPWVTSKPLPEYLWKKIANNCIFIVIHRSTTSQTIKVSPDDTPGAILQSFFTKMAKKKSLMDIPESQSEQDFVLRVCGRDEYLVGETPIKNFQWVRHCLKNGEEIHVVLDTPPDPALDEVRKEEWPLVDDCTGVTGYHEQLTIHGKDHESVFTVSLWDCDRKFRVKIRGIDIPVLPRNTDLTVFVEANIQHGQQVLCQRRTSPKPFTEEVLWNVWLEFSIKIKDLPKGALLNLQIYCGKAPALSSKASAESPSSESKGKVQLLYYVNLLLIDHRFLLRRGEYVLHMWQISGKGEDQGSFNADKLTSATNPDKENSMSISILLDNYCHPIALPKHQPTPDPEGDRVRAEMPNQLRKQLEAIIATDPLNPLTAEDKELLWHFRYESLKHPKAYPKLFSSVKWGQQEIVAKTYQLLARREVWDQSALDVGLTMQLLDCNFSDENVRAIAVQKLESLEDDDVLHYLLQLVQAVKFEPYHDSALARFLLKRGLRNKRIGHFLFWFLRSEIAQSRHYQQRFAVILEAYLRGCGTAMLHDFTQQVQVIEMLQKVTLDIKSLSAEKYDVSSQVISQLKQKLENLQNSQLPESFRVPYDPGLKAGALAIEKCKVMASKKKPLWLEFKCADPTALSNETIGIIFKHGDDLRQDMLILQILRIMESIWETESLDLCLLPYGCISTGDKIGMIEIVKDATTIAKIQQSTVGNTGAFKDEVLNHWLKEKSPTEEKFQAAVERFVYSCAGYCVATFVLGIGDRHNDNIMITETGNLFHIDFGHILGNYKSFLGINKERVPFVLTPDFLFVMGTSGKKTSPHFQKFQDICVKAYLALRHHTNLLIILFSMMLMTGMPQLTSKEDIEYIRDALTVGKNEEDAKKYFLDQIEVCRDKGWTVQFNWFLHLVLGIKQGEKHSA

Row | Compound | IC50 [1] [nM] | IC50 [2] [nM]
1 | CCNC(=O)Nc1ccc(-c2nc3c(c(N4CCOCC4)n2)CCN(C(=O)C(C)(C)C)C3)cc1 [Example 98, 1-ethyl-3-(4-(4-morpholino-7-pivaloyl-5,6,7,8-tetrahydropyrido[3,4-d]pyrimidin-2-yl)phenyl)urea] | > 10000 | < 100
2 | CCOC(=O)N1Cc2nc(-c3ccc(NC(=O)NC4CC4)cc3F)nc(N3CCOC[C@@H]3C)c2C1 [Example 131, (S)-ethyl 2-(4-(3-cyclopropylureido)-2-fluorophenyl)-4-(3-methylmorpholino)-5H-pyrrolo[3,4-d]pyrimidine-6(7H)-carboxylate] | > 10000 | 100 to 1000
3 | C[C@H]1COCCN1c1nc(-c2ccc(NC(=O)Nc3cccc(O)n3)cc2)nc2c1CN(C)C2 [Example 80, (S)-1-(6-hydroxypyridin-2-yl)-3-(4-(6-methyl-4-(3-methylmorpholino)-6,7-dihydro-5H-pyrrolo[3,4-d]pyrimidin-2-yl)phenyl)urea] | 1000 to 10000 | < 100
4 | CCOC(=O)N1CCc2c(nc(-c3ccc(NC(=O)NC4CC4)cc3)nc2N2CCOC[C@@H]2C)C1 [Example 78, (S)-ethyl 2-(4-(3-cyclopropylureido)phenyl)-4-(3-methylmorpholino)-5,6-dihydropyrido[3,4-d]pyrimidine-7(8H)-carboxylate] | > 10000 | < 100
5 | CCNC(=O)Nc1ccc(-c2nc3c(c(N4CCOC[C@@H]4C)n2)CCN(C(=O)CO)C3)cc1 [Example 102, (S)-1-ethyl-3-(4-(7-(2-hydroxyacetyl)-4-(3-methylmorpholino)-5,6,7,8-tetrahydropyrido[3,4-d]pyrimidin-2-yl)phenyl)urea] | > 10000 | < 100
6 | CCNC(=O)Nc1ccc(-c2nc3c(c(N4CCOC[C@@H]4C)n2)CN(CC(F)(F)F)C3)cc1 [Example 68, (S)-1-ethyl-3-(4-(4-(3-methylmorpholino)-6-(2,2,2-trifluoroethyl)-6,7-dihydro-5H-pyrrolo[3,4-d]pyrimidin-2-yl)phenyl)urea] | > 10000 | 100 to 1000
7 | CCNC(=O)Nc1ccc(-c2nc3c(c(N4CCOCC4)n2)CN(C(=O)OCC)C3)cc1 [Example 70, Ethyl 2-(4-(3-ethylureido)phenyl)-4-morpholino-5H-pyrrolo[3,4-d]pyrimidine-6(7H)-carboxylate] | > 10000 | < 100

Further lines, results first:

Row | IC50 [1] [nM] | IC50 [2] [nM] | Compound
8 | > 10000 | < 100 | CC(C)CN1Cc2nc(-c3ccc(NC(=O)NC4CC4)cc3)nc(N3CCOC[C@@H]3C)c2C1 [Example 65, (S)-1-cyclopropyl-3-(4-(6-isobutyl-4-(3-methylmorpholino)-6,7-dihydro-5H-pyrrolo[3,4-d]pyrimidin-2-yl)phenyl)urea]
9 | > 10000 | 100 to 1000 | CCNC(=O)Nc1ccc(-c2nc3c(c(N4CCOCC4)n2)CCN(C)C3)cc1 [Example 93, 1-ethyl-3-(4-(7-methyl-4-morpholino-5,6,7,8-tetrahydropyrido[3,4-d]pyrimidin-2-yl)phenyl)urea]
10 | > 10000 | < 100 | CCOC(=O)N1Cc2nc(-c3ccc(NC(=O)Nc4ccncc4)cc3)nc(N3CCOC[C@@H]3C)c2C1 [Example 121, (S)-ethyl 4-(3-methylmorpholino)-2-(4-(3-(pyridin-4-yl)ureido)phenyl)-5H-pyrrolo[3,4-d]pyrimidine-6(7H)-carboxylate]
11 | > 10000 | 100 to 1000 | CCNC(=O)Nc1ccc(-c2nc3c(c(N4CCOCC4)n2)CCN(C(=O)NCC)C3)cc1 [Example 94, N-ethyl-2-(4-(3-ethylureido)phenyl)-4-morpholino-5,6-dihydropyrido[3,4-d]pyrimidine-7(8H)-carboxamide]
12 | > 10000 | 100 to 1000 | CCNC(=O)Nc1ccc(-c2nc3c(c(N4CCOC[C@@H]4C)n2)CN(CC(C)(C)C)C3)cc1 [Example 67, (S)-1-ethyl-3-(4-(4-(3-methylmorpholino)-6-neopentyl-6,7-dihydro-5H-pyrrolo[3,4-d]pyrimidin-2-yl)phenyl)urea]
